# Measurements: ChEMBL document CHEMBL3507680, “University of Dundee, Gates Library screen for HepG2 cell viability”
# Experiment: Human HepG2 cell viability assay in 384 well format
# Format: toxicity, cell-based
# Design: dose 125 nL, time 70.5 hour; cytotoxicity at 70.5 h: concentration not given beside the values
# Settings: HepG2 cells, read-out: Inhibition
row,SMILES,cytotoxicity at 70.5 h [%]
1,CCS(=O)(=O)c1ncc(CN(C)Cc2cccc(OC)c2)n1CCOC,-6.87
2,O=C(Cc1cccs1)N1C[C@@H]2CN(Cc3ccoc3)CCO[C@@H]2C1,-15.2
3,CC1(c2ccccc2)CCC(=O)N(CC2(N3CCOCC3)CCCC2)C1 (configuration not stated),6.77
4,CCNc1ncc(C(=O)NCc2csc(C)n2)cn1,1.23
5,Cc1cc(C)c(S(=O)(=O)Nc2c(C)nc(N3CCCC3)nc2C)cc1C,2.48
6,COc1ccc(C(=O)N2CCCC2c2noc(C(C)C)n2)nn1 (configuration not stated),-4.87
7,CC(C)[C@]1(O)CN(C(=O)COCC(N)=O)C[C@H]1C,23.2
8,CC1CCc2n[nH]c(C(=O)NCCCc3ccco3)c2C1 (configuration not stated),-2.37
9,NC(=O)c1cccc(C2CCN(c3ncccn3)CC2)n1,-13.4
10,CN1CCN([C@H]2COC[C@@H]3CN(Cc4cccnc4)C[C@@H]32)CC1,-8.25
11,COCc1nnc(-c2cccc(C(=O)N(C)CC(C)(C)C)c2)o1,-14.1
12,O=C1CC2(CCN(CC3CC3)C2)CN1c1cccc(F)c1 (configuration not stated),6.96
13,CCCN1CCC(c2nc3ccc(NCc4cccnc4)cn3n2)CC1,-10.3
14,Cc1nn(C)c2c(N3CCSCC3)nc(C3CC3)nc12,-4.86
15,CC(C(=O)N(C)C)N1CCCN(C(=O)Oc2ccccc2)CC1 (configuration not stated),-9.71
16,Cn1cc(CN2CCCn3cnc(COCc4ccco4)c3C2)cn1,3.06
17,CN(Cc1cc(Cl)c2c(c1)OCO2)Cc1cscn1,3.03
18,COc1ccc(F)c(CN2CCCC(O)(CNCc3ccon3)C2=O)c1 (configuration not stated),8.61
19,CCCN1CCCn2nc(CNS(=O)(=O)c3cnn(CC)c3)cc2C1,-3.06
20,Cc1ccc(NC(=O)N(C)C)c(C(=O)OCC(=O)NC(C)C(C)C)c1 (configuration not stated),26.9
21,Cn1ncc2c1C(COCC1CC1)CN(S(C)(=O)=O)C2 (configuration not stated),-9.85
22,CCOCC1CN(C(=O)c2cscn2)Cc2cnn(CC3CC3)c21 (configuration not stated),8.12
23,Cc1ccc(C(=O)N2Cc3ccccc3C2)cc1N1CCNC1=O,-6.89

row,SMILES,cytotoxicity at 70.5 h [%]
1,Cc1cc(C)nc(NCCC(=O)NCCn2ccc3ccccc32)n1,5.63
2,CC(C)c1nc(CN(C)C2CCN(Cc3nc(C4CC4)no3)C2)no1 (configuration not stated),12
3,Cc1cc(NC(=O)N2CCC[C@@H]2CO)nn1-c1ccccc1Cl,-7.9
4,CCN1CCN2CCCN(S(=O)(=O)c3cccc(F)c3)C2C1=O (configuration not stated),-8.84
5,Cc1ccc(CN2C[C@@H](N(C)C)[C@H]3OCCC[C@H]32)o1,1.56
6,N#Cc1ccc(Cl)cc1NCC1CCOC1 (configuration not stated),-1.84
7,CCOCCCNC(=O)c1cc(C)nc(N2CCCCC2)n1,-6.17
8,COc1cccc2c1OCC(CNC(=O)COCC(F)(F)C(F)F)C2 (configuration not stated),8.83
9,N#Cc1cccc(N2CC3(CCN(C(=O)C4CC=CC4)C3)CC2=O)c1 (configuration not stated),-9.81
10,CCOC[C@@H]1CC[C@H]2[C@H](CCN2S(=O)(=O)Cc2ccccc2)O1,10.7
11,O=C(O)CCc1cc2n(n1)CCN(Cc1cnc(N3CCCC3)nc1)C2,-2.38
12,COCc1ncn(Cc2nc(-c3ccc(OC)c(OC)c3)oc2C)n1,27.5
13,CC(C)C(=O)N1CCC2(COCc3cnc(-c4cccnc4)nc32)C1 (configuration not stated),-7.75
14,CC(C)CN(CC(C)C)Cn1ncc2cn(-c3ccccc3)nc2c1=O,-2.25
15,O=C(CCc1ccncc1)N1CCc2cc(Cl)cc(Cl)c2C1,17.4
16,Cc1noc(-c2ccnc(N3CCC(N4CCCC4)CC3)c2)n1,-8.66
17,CCS(=O)(=O)c1ccc(N2CCC(NC(=O)CCC(C)C)CC2)cc1,-9.09
18,CN1CCOC(CN(C(=O)CCc2cnn(C)c2)c2nccs2)C1 (configuration not stated),-5.55
19,CCCNC(=O)c1cc2c(c3ccccc3n2C)n1C(=O)N(C)C,-5.66
20,CCCNC(=O)c1cc2c(s1)CCN2c1ncccn1,3.12
21,COCCN1CCC2(CC1)CC(c1ccccc1)C(=O)N2C (configuration not stated),-7.45
22,CC(C)C1SCC(=O)Nc2c1cnn2-c1ccc(Cl)cc1F (configuration not stated),0.678
23,CN(C)C(=O)CN1CCCC2(CCN(c3ccc(C#N)cn3)C2)C1 (configuration not stated),8.76

row,SMILES,cytotoxicity at 70.5 h [%]
1,Cn1cncc1-c1nnc([C@H]2CCN(CC(C)(C)C)C2)o1,14
2,CCc1ccccc1CN1CCC(N2CCCC2=O)CC1,-8.77
3,CSC1=Nc2c(cnn2-c2ccc(C)cc2)C2=NCCCN12,-10.1
4,Cc1ccsc1C(=O)N1Cc2ccccc2C2(CCN(C)CC2)C1,-6.4
5,COc1c(C2CCCN2Cc2nc(C3CC3)no2)c(C)nn1C (configuration not stated),9.69
6,Clc1cccc(N2CCC(NCc3ncc[nH]3)C2)c1 (configuration not stated),0.765
7,Cc1nn(C)c2ncnc(N3CCCC(OCc4cccnc4)C3)c12 (configuration not stated),-3.45
8,Cc1ccccc1S(=O)(=O)NC(=O)CSc1ccc2c(c1)OCCO2,-4.74
9,CCOCC1CN(C(=O)CC2=CCCCC2)Cc2nnn(C)c21 (configuration not stated),-12.8
10,CCc1[nH]ncc1C(=O)N1CCN(c2nc(C)cc(OC)n2)CC1,-4.16
11,CC(=O)Nc1nc(CN2CCCC2Cn2cc(C)cn2)cs1 (configuration not stated),30.3
12,CC(=O)N1CC[C@H]2NC(=O)N(Cc3ccccc3)C(=O)[C@H]21,-1.45
13,COc1cccc(-c2cc(NCCN(C)C)nc3[nH]ccc23)n1,-6.53
14,COc1ccccc1NC(=O)NC1(c2noc(CN(C)C)n2)CCCC1,22.4
15,CN(Cc1cnn(C)c1)C(=O)NC1CCC(O)CC1 (configuration not stated),-7.28
16,CC(Cn1cccn1)NCc1csc(-c2ccc3c(c2)OCO3)n1 (configuration not stated),-5.39
17,O=C(NCc1ccccc1)N1C[C@H]2C[C@H](C(=O)N3CCCC3)[C@@H](C1)O2,-5.41
18,Cn1cc(C2CC(=O)NC23CCN(c2ncc(F)cn2)CC3)cn1 (configuration not stated),25.2
19,CCn1cc(N2Cc3nc(N(C)C)ncc3C2=O)cn1,-4.06
20,O=C(CCn1ccc2ccccc21)N1CCC(Nc2cccnc2)CC1,-1.56
21,CC(Cn1ccnc1)NC(=O)N(C)Cc1ccsc1 (configuration not stated),-27.1
22,CCc1[nH]c2c(CNc3cncc(C(=O)N(C)C)n3)cc(F)cc2c1C,4.01
23,O=C(NCC1CC1)C1=NOC2(CCN(S(=O)(=O)Cc3ccccc3)C2)C1 (configuration not stated),-5.14

row,SMILES,cytotoxicity at 70.5 h [%]
1,CN(C)CCN1CC(C(=O)N2CCC(c3nccn3C)CC2)CC1=O (configuration not stated),6.94
2,CCN(Cc1cnn(C)c1)C[C@H]1CC[C@@H](Cc2ccc(OC)nc2)O1,-8.42
3,CCCS(=O)(=O)N1CCOC2(CCCN(Cc3ccccn3)C2)C1 (configuration not stated),-2.44
4,CN(C)c1ncc(-c2ccc(C(N)=O)cc2)c(C2CNCCO2)n1 (configuration not stated),-4.35
5,COc1cccc(NC(=O)NCC(Cc2cnn(C)c2)C(N)=O)c1 (configuration not stated),-7.2
6,CC(=O)N(C)CC(=O)Nc1cnc(-n2ccnc2C)nc1,27.9
7,Cc1cncc(C(=O)N(c2ccc(F)cn2)C2CCOCC2)c1,5.37
8,Cc1ccsc1C(=O)N1CCc2ncc(Cn3cccn3)n2CC1,-6.33
9,CCn1c(C)cc(C(=O)N2CCC(Nc3ccc(C)nn3)CC2)c1C,-91.3
10,O=C(NC1CCN(C2CC2)CC1)c1[nH]nc(C2CC2)c1Cl,-4.43
11,CC(C)N(Cc1cccc(F)c1)Cc1nc2c(cnn2C)c(=O)[nH]1,0.718
12,O=C(CSc1ccccc1)Nc1cnn(CC(=O)N2CCCO2)c1,-2.01
13,CC(=O)N1CCC(c2nc(Cc3ccccc3)no2)C1 (configuration not stated),-3.88
14,CCc1noc(CN(CC)C(=O)CC2C(=O)NCCN2CC=C(C)C)n1 (configuration not stated),1.29
15,CCCN1CCN(C(=O)c2cncnc2C)[C@H]2CS(=O)(=O)C[C@H]21,3.92
16,N#Cc1ccc(CNCCn2cccn2)c(F)c1,13.7
17,Cc1c(C2CCCN(C(=O)C3CC3)C2)n2c(nc1=O)CCC2 (configuration not stated),-3.86
18,CC(C)c1cc(NC(=O)CN2CCC(N3CCNC3=O)CC2)on1,-3.58
19,CC(C)=CCN1C[C@H]2CC[C@@H]1CN(C(=O)c1ccc(S(N)(=O)=O)cc1)C2,1.36
20,CC(C)Oc1ncnc2c1CCN(Cc1ccoc1)CC2,-0.464
21,O=C(CCOc1ccccc1)N1CCC(Nc2cccnn2)CC1,1.59
22,Cc1[nH]c2ccccc2c1CCNc1ncnc2c1CCNCC2,0.111
23,CCOCC(=O)N1CCCn2c(CN3CCCCC3)nnc2C1,-1.12

row,SMILES,cytotoxicity at 70.5 h [%]
1,CC(c1cccnc1)N(C)S(C)(=O)=O (configuration not stated),-2.51
2,CN(C)C(=O)N1CCC2(CC1)CNc1ccc(F)cc12,-2.37
3,Cn1cnnc1-c1cncc(NCc2ccccc2Br)c1,13.6
4,CSc1ncccc1C(=O)N1CCC2(CC1)OCCCC2O (configuration not stated),-3.78
5,CC(=O)N1CCN(C(=O)CCn2c(C)nc3ccccc3c2=O)CC1,-7.85
6,CCOc1cncc(NCCc2nnc3ccccn23)n1,-4.67
7,CN(Cc1ccncc1)C1COC2(CCN(Cc3nccn3C)CC2)C1 (configuration not stated),-8.93
8,CCOC(=O)CN1CCC2(CCCN(CCOc3ccccc3)C2)C1 (configuration not stated),-16
9,CN(Cc1cccs1)C(=O)CN1CCCC1Cn1cncn1 (configuration not stated),2.88
10,CC(C)(C)c1ncc(C(=O)NCCNC(=O)c2cccs2)s1,12.5
11,O=S(=O)(NCCCn1cncn1)c1ccc2c(c1)OCCO2,-3.62
12,O=C1CC2(CCN(Cc3cccnc3)C2)CN1c1cncnc1 (configuration not stated),-2.69
13,Cc1nc(C(=O)N2CCCC(n3cncn3)C2)cs1 (configuration not stated),-3.83
14,O=C(Nc1ccnn1C1CCCC1)c1ccc(NC2CC2)nc1,3.1
15,Cc1csc(CN2CC[C@H]3C(=O)N(c4cccnc4)CCO[C@H]3C2)n1,11
16,Cn1ccnc1C1CCN(S(=O)(=O)c2ccc3oc(=O)[nH]c3c2)CC1,-9.3
17,c1cncc(-c2noc(CN3CCOC(Cn4cccn4)C3)n2)c1 (configuration not stated),-4.62
18,Cc1nc(COCC2CN(C(=O)N(C)C)Cc3nccn3C2)cs1 (configuration not stated),-5.94
19,CNC(=O)[C@@H]1C[C@@H](NC(=O)c2cn(C)nc2C)CN1Cc1sccc1C,-2.42
20,Cn1cc(CC2CCN(C(=O)NCc3csc(C4CC4)n3)C2)cn1 (configuration not stated),0.703
